The values below are quoted from earlier work in patent US20230115209A1, “[…] PSILOCIN CONTAINING COMPOSITIONS AND METHODS OF USING AND MAKING THE SAME” (Orthogonal Thinker, Inc., priority 2020, published 2023).

For data set [1] the following is noted: trace fear conditioning.
For data set [2] the following is noted: in vivo.

For the molecule `CN(C)CCc1c[nH]c2cccc(OP(=O)(O)O)c12` [Psilocybin, 4-phosphoryloxy-N,N-dimethyl-tryptamine], the “extinction of the classically conditioned fear response” value in data set [1] was “facilitates extinction of the classically conditioned fear response”. For the same molecule, in data set [2], the “global neural signal diversity” value was “increase global neural signal diversity”.
